Assay results as given in ChEMBL document CHEMBL1275550, “In vitro activity of doripenem, a carbapenem for the treatment of challenging infections caused by gram-negative bacteria, against recent clinical isolates from the United States” (2008).
≈ marks a conversion by molar mass, not a printed value.

What was measured:
Escherichia coli [1] = assay: Antimicrobial activity against ESBL producing Escherichia coli assessed as intermediate isolate by broth microdilution method; type: functional
Pseudomonas aeruginosa [2] = assay: Antimicrobial activity against Ceftazidime susceptible Pseudomonas aeruginosa by broth microdilution method; type: functional
Enterobacter cloacae [3] = assay: Antimicrobial activity against Enterobacter cloacae with nonderepressed AmpC beta-lactamsae by broth microdilution method; type: functional
Pseudomonas aeruginosa [4] = assay: Antimicrobial activity against imipenem susceptible Pseudomonas aeruginosa by broth microdilution method; type: functional
Enterobacteriaceae [5] = assay: Antimicrobial activity against ceftazidime-susceptible Enterobacteriaceae by broth microdilution method; type: functional
Enterobacteriaceae [6] = assay: Antimicrobial activity against ceftazidime-susceptible Enterobacteriaceae assessed as susceptible isolate by broth microdilution method; type: functional
Pseudomonas aeruginosa [7] = assay: Antimicrobial activity against Pseudomonas aeruginosa isolated from ICU patient assessed as resistant isolate by broth microdilution method
Enterobacteriaceae [8] = assay: Antimicrobial activity against Ceftazidime non-susceptible Enterobacteriaceae assessed as resistant isolate by broth microdilution method; type: functional
Proteus mirabilis [9] = assay: Antimicrobial activity against Non-ESBL Proteus mirabilis by broth microdilution method; type: functional
Pseudomonas aeruginosa [10] = assay: Antimicrobial activity against Ceftazidime susceptible Pseudomonas aeruginosa assessed as resistant isolate by broth microdilution method; type: functional
Acinetobacter [11] = assay: Antimicrobial activity against imipenem non-susceptible Acinetobacter by broth microdilution method; type: functional
Serratia marcescens [12] = assay: Antimicrobial activity against Ceftazidime susceptible Serratia marcescens assessed as susceptible isolate by broth microdilution method; type: functional
Proteus mirabilis [13] = assay: Antimicrobial activity against ESBL producing Proteus mirabilis by broth microdilution method; type: functional
Acinetobacter [14] = assay: Antimicrobial activity against imipenem susceptible Acinetobacter by broth microdilution method; type: functional
Serratia marcescens [15] = assay: Antimicrobial activity against Ceftazidime non-susceptible Serratia marcescens assessed as intermediate isolate by broth microdilution method; type: functional
Serratia marcescens [16] = assay: Antimicrobial activity against Ceftazidime non-susceptible Serratia marcescens by broth microdilution method; type: functional
Pseudomonas aeruginosa [17] = assay: Antimicrobial activity against Pseudomonas aeruginosa isolated from ICU patient assessed as susceptible isolate by broth microdilution method
Pseudomonas aeruginosa [18] = assay: Antimicrobial activity against imipenem non-susceptible Pseudomonas aeruginosa by broth microdilution method; type: functional
Escherichia coli [19] = assay: Antimicrobial activity against ESBL producing Escherichia coli assessed as susceptible isolate by broth microdilution method; type: functional
Acinetobacter [20] = assay: Antimicrobial activity against imipenem non-susceptible Acinetobacter assessed as resistant isolate by broth microdilution method; type: functional
Acinetobacter [21] = assay: Antimicrobial activity against imipenem non-susceptible Acinetobacter assessed as susceptible isolate by broth microdilution method; type: functional
Serratia marcescens [22] = assay: Antimicrobial activity against Ceftazidime susceptible Serratia marcescens by broth microdilution method; type: functional
Escherichia coli [23] = assay: Antimicrobial activity against Non-ESBL Escherichia coli by broth microdilution method; type: functional
Pseudomonas aeruginosa [24] = assay: Antimicrobial activity against imipenem non-susceptible Pseudomonas aeruginosa assessed as intermediate isolate by broth microdilution method; type: functional
Enterobacteriaceae [25] = assay: Antimicrobial activity against Ceftazidime non-susceptible Enterobacteriaceae by broth microdilution method; type: functional
Proteus mirabilis [26] = assay: Antimicrobial activity against ESBL producing Proteus mirabilis assessed as susceptible isolate by broth microdilution method; type: functional
Serratia marcescens [27] = assay: Antimicrobial activity against Ceftazidime non-susceptible Serratia marcescens assessed as susceptible isolate by broth microdilution method; type: functional
Citrobacter = assay: Antimicrobial activity against Citrobacter with derepressed AmpC beta-lactamsae assessed as susceptible isolate by broth microdilution method; type: functional
Klebsiella pneumoniae [28] = assay: Antimicrobial activity against Non-ESBL Klebsiella pneumoniae assessed as susceptible isolate by broth microdilution method; type: functional
Enterobacter cloacae [29] = assay: Antimicrobial activity against Enterobacter cloacae with nonderepressed AmpC beta-lactamsae assessed as intermediate isolate by broth microdilution method; type: functional
Enterobacteriaceae [30] = assay: Antimicrobial activity against Ceftazidime non-susceptible Enterobacteriaceae assessed as intermediate isolate by broth microdilution method; type: functional
Pseudomonas aeruginosa [31] = assay: Antimicrobial activity against Pseudomonas aeruginosa isolated from ICU patient assessed as intermediate isolate by broth microdilution method
Escherichia coli [32] = assay: Antimicrobial activity against ESBL producing Escherichia coli by broth microdilution method; type: functional
Escherichia coli [33] = assay: Antimicrobial activity against Non-ESBL Escherichia coli assessed as intermediate isolate by broth microdilution method; type: functional
Klebsiella pneumoniae [34] = assay: Antimicrobial activity against ESBL producing Klebsiella pneumoniae assessed as intermediate isolate by broth microdilution method; type: functional
Pseudomonas aeruginosa [35] = assay: Antimicrobial activity against Ceftazidime non-susceptible Pseudomonas aeruginosa assessed as susceptible isolate by broth microdilution method; type: functional
Enterobacteriaceae [36] = assay: Antimicrobial activity against ceftazidime-susceptible Enterobacteriaceae assessed as resistant isolate by broth microdilution method; type: functional
Pseudomonas aeruginosa [37] = assay: Antimicrobial activity against imipenem susceptible Pseudomonas aeruginosa assessed as intermediate isolate by broth microdilution method; type: functional
Pseudomonas aeruginosa [38] = assay: Antimicrobial activity against imipenem susceptible Pseudomonas aeruginosa assessed as susceptible isolate by broth microdilution method; type: functional
Pseudomonas aeruginosa [39] = assay: Antimicrobial activity against Ceftazidime non-susceptible Pseudomonas aeruginosa by broth microdilution method; type: functional

**Q.** Which Activity (Escherichia coli [1]) does the source give for CC(C)(O/N=C(\C(=O)N[C@@H]1C(=O)N2C(C(=O)[O-])=C(C[n+]3ccccc3)CS[C@H]12)c1csc(N)n1)C(=O)O [CEFTAZIDIME] here?
**A.** 10%

**Q.** And the MIC50 (Pseudomonas aeruginosa [2])?
**A.** 2 µg/mL (≈ 3.66 µM)

**Q.** What about the MIC90 (Pseudomonas aeruginosa [2]) of the same compound?
**A.** 4 µg/mL (≈ 7.32 µM)

**Q.** What about the MIC50 (Enterobacter cloacae [3]) of the same compound?
**A.** 0.25 µg/mL (≈ 0.457 µM)

**Q.** What about the MIC90 (Enterobacter cloacae [3]) of the same compound?
**A.** 2 µg/mL (≈ 3.66 µM)

**Q.** What about the MIC50 (Pseudomonas aeruginosa [4]) of the same compound?
**A.** 2 µg/mL (≈ 3.66 µM)

**Q.** And the MIC90 (Pseudomonas aeruginosa [4])?
**A.** 8 µg/mL (≈ 14.6 µM)

**Q.** And the MIC50 (Enterobacteriaceae [5])?
**A.** 0.12 µg/mL (≈ 0.22 µM)

**Q.** What about the MIC90 (Enterobacteriaceae [5]) of the same compound?
**A.** 0.5 µg/mL (≈ 0.915 µM)

**Q.** What about the Activity (Enterobacteriaceae [6]) of the same compound?
**A.** 100%

**Q.** And the Activity (Pseudomonas aeruginosa [7])?
**A.** 14.4%

**Q.** What about the Activity (Enterobacteriaceae [8]) of the same compound?
**A.** 92.4%

**Q.** What about the MIC (Proteus mirabilis [9]) of the same compound?
**A.** ≤ 0.03 µg/mL

**Q.** And the MIC50 (Proteus mirabilis [9])?
**A.** ≤ 0.03 µg/mL

**Q.** And the MIC90 (Proteus mirabilis [9])?
**A.** 0.06 µg/mL (≈ 0.11 µM)

**Q.** What about the Activity (Pseudomonas aeruginosa [10]) of the same compound?
**A.** 0%

**Q.** And the MIC50 (Acinetobacter [11])?
**A.** > 32 µg/mL

**Q.** And the MIC90 (Acinetobacter [11])?
**A.** > 32 µg/mL

**Q.** What about the Activity (Serratia marcescens [12]) of the same compound?
**A.** 100%

**Q.** What about the MIC (Proteus mirabilis [13]) of the same compound?
**A.** 8 µg/mL (≈ 14.6 µM)

**Q.** And the MIC50 (Acinetobacter [14])?
**A.** 4 µg/mL (≈ 7.32 µM)

**Q.** And the MIC90 (Acinetobacter [14])?
**A.** > 32 µg/mL

**Q.** What about the Activity (Serratia marcescens [15]) of the same compound?
**A.** 0%

**Q.** What about the MIC (Serratia marcescens [16]) of the same compound?
**A.** > 32 µg/mL

**Q.** What about the MIC50 (Serratia marcescens [16]) of the same compound?
**A.** > 32 µg/mL

**Q.** And the MIC90 (Serratia marcescens [16])?
**A.** > 32 µg/mL

**Q.** And the Activity (Pseudomonas aeruginosa [17])?
**A.** 79.9%

**Q.** And the MIC50 (Pseudomonas aeruginosa [18])?
**A.** 4 µg/mL (≈ 7.32 µM)

**Q.** What about the MIC90 (Pseudomonas aeruginosa [18]) of the same compound?
**A.** > 32 µg/mL

**Q.** And the Activity (Escherichia coli [19])?
**A.** 33.3%

**Q.** And the Activity (Acinetobacter [20])?
**A.** 84.3%

**Q.** What about the Activity (Acinetobacter [21]) of the same compound?
**A.** 15.7%

**Q.** What about the MIC50 (Serratia marcescens [22]) of the same compound?
**A.** 0.12 µg/mL (≈ 0.22 µM)

**Q.** And the MIC90 (Serratia marcescens [22])?
**A.** 0.5 µg/mL (≈ 0.915 µM)

**Q.** What about the MIC50 (Escherichia coli [23]) of the same compound?
**A.** 0.12 µg/mL (≈ 0.22 µM)

**Q.** And the MIC90 (Escherichia coli [23])?
**A.** 0.25 µg/mL (≈ 0.457 µM)

**Q.** And the Activity (Pseudomonas aeruginosa [24])?
**A.** 5.3%

**Q.** And the MIC50 (Enterobacteriaceae [25])?
**A.** > 32 µg/mL

**Q.** And the MIC90 (Enterobacteriaceae [25])?
**A.** > 32 µg/mL

**Q.** And the Activity (Proteus mirabilis [26])?
**A.** 50%

**Q.** What about the Activity (Serratia marcescens [27]) of the same compound?
**A.** 0%

**Q.** And the Activity (Citrobacter)?
**A.** 0%

**Q.** What about the Activity (Klebsiella pneumoniae [28]) of the same compound?
**A.** 99.2%

**Q.** And the Activity (Enterobacter cloacae [29])?
**A.** 0.7%

**Q.** And the Activity (Enterobacteriaceae [30])?
**A.** 7.6%

**Q.** What about the Activity (Pseudomonas aeruginosa [31]) of the same compound?
**A.** 5.8%

**Q.** And the MIC50 (Escherichia coli [32])?
**A.** 32 µg/mL (≈ 58.5 µM)

**Q.** And the MIC90 (Escherichia coli [32])?
**A.** > 32 µg/mL

**Q.** What about the Activity (Escherichia coli [33]) of the same compound?
**A.** 0.5%

**Q.** And the Activity (Klebsiella pneumoniae [34])?
**A.** 0%

**Q.** What about the Activity (Pseudomonas aeruginosa [35]) of the same compound?
**A.** 0%

**Q.** What about the Activity (Enterobacteriaceae [36]) of the same compound?
**A.** 0%

**Q.** And the Activity (Pseudomonas aeruginosa [37])?
**A.** 2.2%

**Q.** And the Activity (Pseudomonas aeruginosa [38])?
**A.** 90.9%

**Q.** And the MIC50 (Pseudomonas aeruginosa [39])?
**A.** 32 µg/mL (≈ 58.5 µM)

**Q.** And the MIC90 (Pseudomonas aeruginosa [39])?
**A.** > 32 µg/mL
